Here are results for 6 compounds from publication PMC9977316, “The kidney drug transporter OAT1 regulates gut microbiome–dependent host metabolism” (JCI Insight, 2023).

“Also recorded” adds a separate entry of the source. Like-named read-outs stand apart in the source and are kept apart here.

Data set [1] concerns the target T1, OAT1 (Homo sapiens, UniProt Q4U2R8).
T1 sequence (Q4U2R8 1-563): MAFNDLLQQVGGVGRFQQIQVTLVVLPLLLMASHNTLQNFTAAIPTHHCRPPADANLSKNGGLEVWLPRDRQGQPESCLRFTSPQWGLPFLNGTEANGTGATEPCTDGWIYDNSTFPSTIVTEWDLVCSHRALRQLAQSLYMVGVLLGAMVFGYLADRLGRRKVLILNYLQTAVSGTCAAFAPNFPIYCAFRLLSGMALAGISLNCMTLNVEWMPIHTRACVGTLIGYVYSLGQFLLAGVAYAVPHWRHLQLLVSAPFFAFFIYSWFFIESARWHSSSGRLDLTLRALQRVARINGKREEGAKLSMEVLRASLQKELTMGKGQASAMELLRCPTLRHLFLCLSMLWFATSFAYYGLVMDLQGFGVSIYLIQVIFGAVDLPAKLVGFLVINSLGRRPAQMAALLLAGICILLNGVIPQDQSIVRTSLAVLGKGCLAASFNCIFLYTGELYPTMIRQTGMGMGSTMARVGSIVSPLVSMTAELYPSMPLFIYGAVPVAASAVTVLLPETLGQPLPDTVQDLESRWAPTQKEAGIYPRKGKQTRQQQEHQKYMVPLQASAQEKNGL
The experiment in a line: In vitro OAT1 transport assay (inhibition of 6-carboxyfluorescein uptake). The format is cell-based. Set-up: host or cells: HEK (HEK293) cells stably overexpressing human OAT1. To be noted: for In vitro cell–based transport assay: this work. On the procedure:
Human embryonic kidney (HEK) cells stably overexpressing human OAT1 (SOLVO Biotechnology) were used for in vitro inhibition assays. […] Prior to functional assays, cells were plated in 96-well plates and grown for 24 hours or until confluent in media without blasticidin. Metabolites were added at either 1 mM or 2 mM, and serial dilution was performed down all columns. A fixed concentration of 10 μM 6-carboxyfluorescein (6-CF) was introduced to each well for 10 minutes. Cells were rinsed 3 times in ice-cold PBS, and the fluorescence was measured using a fluorescence plate reader. IC50 values were calculated using GraphPad Prism 9. Controls were carried out using probenecid, an established inhibitor of OAT1 function.

Data set [2] addresses T2, OAT1 (Mus musculus, UniProt Q8VC69).
T2 construct: from tissue; host or cells: living mice (kidney proximal tubule); Oat1-KO versus WT
T2 sequence (Q8VC69 1-545): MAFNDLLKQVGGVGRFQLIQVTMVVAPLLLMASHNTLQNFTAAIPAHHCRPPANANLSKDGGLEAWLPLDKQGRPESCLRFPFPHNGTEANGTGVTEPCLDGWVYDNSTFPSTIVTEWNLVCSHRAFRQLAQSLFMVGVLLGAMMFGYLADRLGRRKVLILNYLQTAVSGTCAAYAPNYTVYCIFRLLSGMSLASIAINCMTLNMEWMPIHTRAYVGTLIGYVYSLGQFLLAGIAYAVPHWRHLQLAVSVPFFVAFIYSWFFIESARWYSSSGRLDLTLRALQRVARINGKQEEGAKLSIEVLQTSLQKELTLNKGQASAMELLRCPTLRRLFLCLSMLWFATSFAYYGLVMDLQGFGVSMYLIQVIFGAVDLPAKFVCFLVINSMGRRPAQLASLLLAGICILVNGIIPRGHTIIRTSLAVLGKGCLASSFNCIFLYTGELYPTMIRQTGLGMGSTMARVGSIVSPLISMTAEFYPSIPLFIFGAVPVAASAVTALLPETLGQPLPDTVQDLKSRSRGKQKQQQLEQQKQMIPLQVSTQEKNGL
The experiment in a line: Serum metabolomics, effect of genotype (Oat1-KO versus WT), 2-way ANOVA. Conditions: for effect of genotype on serum level: statistical analysis of the serum metabolome. The format is in vivo. As to the method:
Adult male KO and WT mice were housed in a 12-hour light-dark cycle and allowed ad libitum access to food and water. Oat1-KO mice were generated and maintained as previously described ([49]). Feces were collected from mice weekly in sterile 2 mL centrifuge tubes, flash frozen, and stored at –80°C. Animals were sacrificed by CO2 inhalation, and blood samples were extracted from mice by cardiac puncture. Serum was extracted, and samples were flash frozen and stored at –80°C until further analysis.
Serum samples were shipped on dry ice to Metabolon Inc. for preparation and metabolomics. Per Metabolon Inc., proteins were removed from the serum and 5 fractions were generated for different mass spectrometry methods. […] Peaks were identified and associated with defined compounds based on retention time, mass/charge ratio, and MS/MS spectral data. Quantification of peaks was performed using AUC.
Scaled intensity for each metabolite was normalized to volume, and missing values were imputed with the lowest value for the compound. For all fold-change calculations, scaled intensities were averaged and compared with each other. Statistical comparisons were performed using the Python module, statsmodels (https://www.statsmodels.org/stable/index.html) and were made between groups by 2-way ANOVA following log transformation and FDR correction, with P < 0.05 being considered significant. Enrichment for each superpathway and subpathway was calculated using the number of total metabolites measured and the number of metabolites in each respective superpathway and subpathway, as previously described ([16]).

For data set [3], the target named is T2, OAT1. The data set can be described thus: Tc-99m MAG3 imaging and postmortem γ counts in Oat1-KO and WT mice. It is filed as in vivo. Conditions: WT vs Oat1-KO. On the procedure:
Live-imaging experiments were performed with the In Vivo Imaging Shared Resource at the Moore’s Cancer Center at the UCSD. Mice were transported from the vivarium to the In Vivo Imaging Shared Resource. In total, 100 μCi of Tc-99m MAG3 was injected by tail vein into mice prior to imaging. Adult, male KO (n = 5) and WT mice (n = 5) were imaged in 5 separate pairs containing 1 KO mouse and 1 WT mouse each. Mice were initially weighed and anesthetized (2% isoflurane, 200 mL/min flow of O2). Mice were placed on their backs on the high-resolution γ imager (γ imager; BioSpace) fitted with a high-resolution, low-energy collimator. For 30 minutes, time-activity curves were collected from the kidneys, liver, and bladder. Following imaging, blood, urine, kidneys, liver, and spleen were isolated and weighed from each mouse for radioactive assessment using a γ counter.

Data set [4] has as its target T1, OAT1. Set-up: The full-length protein was expressed as GFP fusion in HEK293 cells to check for protein expression; GFP; FLAG (inferred from capture on anti-flag antibody beads); made in house; host or cells: HEK293 cells, third-generation lentiviral vector. Conditions: cited from earlier work.

As to `O=C(O)Cc1ccccc1O` [2-hydroxyphenylacetate], at OAT1 [1], the IC50 – broadly, the midpoint of a concentration-inhibition curve – was determined as 39.2 µM and the “In vitro cell–based transport assay” value is “× (this work)”. At OAT1 [2], the “effect of genotype on serum level” value is “affected by genotype”.

As for “Tc-99m mercaptoacetyl-triglycine [Tc-99m MAG3]”, at OAT1 [3] (4 of 5 pairs), the “bladder levels, postmortem γ counts scaled to weight” value is on record as “higher in the WT mice” and the “blood levels, postmortem γ counts scaled to weight” value is “higher in the KO mice”. Besides, at OAT1 [3] (tail-vein injection, 30 minutes, γ camera), the “time to maximal bladder levels” value is on record as “WT bladders reached their maximal levels of Tc-99m MAG3 more quickly than the Oat1-KO mice”.

`O=C(O)/C=C/c1ccc(O)cc1` [4-hydroxycinnamate]: at OAT1 [1], the IC50 stood at 13.3 µM and the “In vitro cell–based transport assay” value is on record as “× (this work)”. In addition, at OAT1 [2], the “effect of genotype on serum level” value is given as “not impacted by either variable”.

For `O=C(O)CCc1c[nH]c2ccccc12` [indolepropionate], at OAT1 [1], the concentration for half-maximal inhibition (IC50) is 39.2 µM and the “In vitro cell–based transport assay” value is recorded as “× (this work)”.

Regarding `NCCc1c[nH]c2ccc(O)cc12` [Serotonin], the “In vitro cell–based transport assay” value on OAT1 [4] is “× (17)”.

`C[C@H](CCC(=O)O)[C@H]1CC[C@H]2[C@@H]3CC[C@@H]4C[C@H](O)CC[C@]4(C)[C@H]3C[C@H](O)[C@]12C` [deoxycholate]: on OAT1 [1], the IC50 was determined as 19.2 µM and the “In vitro cell–based transport assay” value was “× (this work)”. The “interaction between genotype and treatment on serum level” value on OAT1 [2] (2-way ANOVA, loss of Oat1 x microbiome depletion) is given as “impacted by the interaction between the variables; also recorded: affected by genotype-treatment interaction”. Moreover, at OAT1 [2] (direction of serum change by loss of Oat1 and by microbiome depletion), the Status result is “Group 2”.
